# Test results taken from patent US20070028400A1, “Skin and/or hair treatment agent containing tetrasubstituted cyclohexene compounds” (priority 2003, published 2007).
# Test system: primary normal human melanocytes
# Experiment: Melanogenesis assay (C14-tyrosine incorporation), 3 days incubation
# Format: cell-based
# Settings: measured as C14-tyrosine incorporation, n=3
# Method: By way of example, the test for the compound acetyl-retinyliminoethanol is given.
# A melanogenesis assay was carried out after incubation for 3 days of primary normal human melanocytes with test substance compared to control. The numbers given in the table indicate the melanogenesis rates based on the untreated control (=100%) (measured as C14-tyrosine incorporation).
smiles,measurement,setting,value
"CC(=O)OCC/N=C/C=C(C)/C=C/C=C(C)/C=C/C1=C(C)CCCC1(C)C [acetyl-retinyliminoethanol, 2-{[(1E,2E,4E,6E,8E)-3,7-dimethyl-9-(2,6,6-trimethylcyclohex-1-en-1-yl)nona-2,4,6,8-tetraen-1-ylidene]amino}ethyl acetate]","melanogenesis rate based on the untreated control (=100%), Average",0.1 μg/ml test substance,117%
same,"melanogenesis rate based on the untreated control (=100%), Average",1 μg/ml test substance,253%
